Experimental data from patent US20240400508A1, “ALKYL-SUBSTITUTED DERIVATIVES OF […] ME[…] […] USES THEREOF” (Sensorium Therapeutics, Inc., priority 2022, published 2024).

Assays:
SERT = molecular target: T1, SERT (Homo sapiens, UniProt P31645); test: SERT inhibition assay (Neurotransmitter Transportation Fluorescence assay); type: cell-based; details: stable 5HTT cells, assay of Example B1
T1 construct: expressed in transfected cells
Method: SERT inhibition was measured using a Neruotransmitter Transportation Fluorescence assay. Briefly, stable SHTT cells were prepared in a 384 microwell plate. Compounds were prepared in assay buffer (20 mM HEPES in HBSS, 0.1% BSA). The compounds were added to the plated cells and incubated for 30 minutes at 37° C. 25 μL of dye solution (Molecular Devices Neurotransmitter Transporter Uptake Assay Kit) was added per well and incubated for 30 minutes at 37° C. The plates were then read on a plate reader.

PDE4A1A = molecular target: T2, PDE4A1A (Homo sapiens, UniProt P27815); test: Recombinant PDE4 isoform inhibition assay (BPS Bioscience kit, fluorescence polarization); type: biochemical
T2 construct: purchased BPS Bioscience
T2 sequence (P27815 1-647 isoform P27815-4): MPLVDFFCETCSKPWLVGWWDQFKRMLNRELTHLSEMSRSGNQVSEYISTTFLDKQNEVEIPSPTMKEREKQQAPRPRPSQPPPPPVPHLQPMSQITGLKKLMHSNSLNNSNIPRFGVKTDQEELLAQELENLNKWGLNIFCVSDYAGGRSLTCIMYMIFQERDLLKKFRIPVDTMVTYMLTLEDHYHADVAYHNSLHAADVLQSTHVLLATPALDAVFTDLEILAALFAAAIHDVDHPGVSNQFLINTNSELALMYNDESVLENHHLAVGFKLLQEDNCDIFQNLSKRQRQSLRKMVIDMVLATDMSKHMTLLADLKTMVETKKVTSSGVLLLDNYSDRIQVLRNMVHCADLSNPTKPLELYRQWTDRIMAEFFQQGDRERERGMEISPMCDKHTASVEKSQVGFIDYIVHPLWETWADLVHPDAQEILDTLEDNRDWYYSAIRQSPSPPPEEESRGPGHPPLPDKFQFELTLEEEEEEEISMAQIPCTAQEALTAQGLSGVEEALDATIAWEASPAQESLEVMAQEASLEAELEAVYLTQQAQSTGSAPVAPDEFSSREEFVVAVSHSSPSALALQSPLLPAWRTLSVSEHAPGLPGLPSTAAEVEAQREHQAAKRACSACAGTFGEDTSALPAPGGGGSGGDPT
Method: (§1) Recombinant PDE assay inhibition can be measured according to the BPS Bioscience PDE4 assay kit, as described below.
(§2) • 1) Dilute 20 μM FAM-Cyclic-3′, 5′-AMP stock 100-fold with PDE buffer to make a 200 nM
(§3) • 2) Add 25 μl of FAM-Cyclic-3′,5′-AMP (200 nM) to each well designated “Positive Control”, “Test Inhibitor”, and “Substrate Control”. • 3) Add 20 μl of PDE assay buffer to each well designated “Substrate Control” and 45 μl of PDE assay buffer to each well designated “Blank”. • 4) Add 5 μl of inhibitor solution to each well designated “Test Inhibitor”. For the wells labeled “Positive Control”, “Substrate Control” and “Blank”, add 5 μl of the same solution without inhibitor (inhibitor buffer). • 5) Thaw PDE on ice. Upon first thaw, briefly spin tube containing enzyme to recover the full contents of the tube. • 6) Dilute PDE4 in PDE buffer to 7.5 pg/μl (0.15 ng/reaction)*. Initiate reaction by adding 20 μl of PDE4 (7.5 pg/μl) to the wells designated “Positive Control” and “Test Inhibitor.” • 7) Incubate at room temperature for 1 hour.
(§4) • 1) Mix binding agent thoroughly and dilute binding agent 1:100 with binding agent diluent. • 2) Add 100 μl diluted binding agent to each microwell. Incubate at room temperature for 1 hour with slow shaking. • 3) Read the fluorescent polarization of the sample in a microtiter-plate reader equipped for the measurement of fluorescence polarization, capable of excitation at wavelengths ranging from 485±5 nm and detection of emitted light ranging from 528±10 nm. Blank value is subtracted from all other values.

PDE4B2 = molecular target: T3, PDE4B2 (Homo sapiens, UniProt Q07343); test: as above; type: biochemical
T3 construct: purchased BPS Bioscience
T3 sequence (Q07343 1-564 isoform Q07343-2): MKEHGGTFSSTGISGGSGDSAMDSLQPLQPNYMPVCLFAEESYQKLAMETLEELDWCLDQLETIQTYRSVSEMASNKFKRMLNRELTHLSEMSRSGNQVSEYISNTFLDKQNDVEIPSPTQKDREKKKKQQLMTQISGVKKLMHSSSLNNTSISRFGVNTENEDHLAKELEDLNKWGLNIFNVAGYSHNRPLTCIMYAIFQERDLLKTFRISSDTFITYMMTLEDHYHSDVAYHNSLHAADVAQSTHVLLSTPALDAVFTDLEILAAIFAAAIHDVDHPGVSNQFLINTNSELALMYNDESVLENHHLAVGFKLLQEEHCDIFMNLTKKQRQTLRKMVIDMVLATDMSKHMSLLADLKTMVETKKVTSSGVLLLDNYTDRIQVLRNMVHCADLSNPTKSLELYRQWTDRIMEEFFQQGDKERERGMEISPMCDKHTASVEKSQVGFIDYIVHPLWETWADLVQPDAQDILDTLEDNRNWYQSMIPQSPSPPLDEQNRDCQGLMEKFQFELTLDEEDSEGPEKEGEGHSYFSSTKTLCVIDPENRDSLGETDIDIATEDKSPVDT
Method: as §1, §2, §3, §4

PDE4C1 = molecular target: T4, PDE4C1 (Homo sapiens, UniProt Q08493); test: as above; type: biochemical
T4 construct: purchased BPS Bioscience
T4 sequence (Q08493 whole entry): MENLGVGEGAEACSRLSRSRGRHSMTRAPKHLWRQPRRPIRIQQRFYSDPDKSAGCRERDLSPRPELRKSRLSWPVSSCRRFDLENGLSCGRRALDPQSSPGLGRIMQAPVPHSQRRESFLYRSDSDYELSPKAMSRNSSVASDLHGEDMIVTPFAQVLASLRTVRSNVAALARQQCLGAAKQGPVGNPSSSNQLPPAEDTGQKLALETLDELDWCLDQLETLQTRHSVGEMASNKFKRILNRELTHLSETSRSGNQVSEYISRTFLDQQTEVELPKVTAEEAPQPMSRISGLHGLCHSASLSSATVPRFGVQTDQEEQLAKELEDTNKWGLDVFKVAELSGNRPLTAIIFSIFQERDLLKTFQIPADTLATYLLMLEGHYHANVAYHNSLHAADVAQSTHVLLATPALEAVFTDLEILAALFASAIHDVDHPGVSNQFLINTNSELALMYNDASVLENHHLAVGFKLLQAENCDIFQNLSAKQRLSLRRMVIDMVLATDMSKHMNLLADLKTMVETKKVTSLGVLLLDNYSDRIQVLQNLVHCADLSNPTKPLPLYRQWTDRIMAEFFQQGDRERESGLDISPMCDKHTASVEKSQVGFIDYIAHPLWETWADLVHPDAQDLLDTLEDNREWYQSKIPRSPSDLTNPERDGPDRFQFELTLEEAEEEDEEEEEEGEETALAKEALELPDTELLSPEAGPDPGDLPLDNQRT
Method: as §1, §2, §3, §4

PDE4D2 = molecular target: T5, PDE4D2 (Homo sapiens, UniProt Q08499); test: as above; type: biochemical
T5 construct: purchased BPS Bioscience
T5 sequence (Q08499 303-809 limits assumed): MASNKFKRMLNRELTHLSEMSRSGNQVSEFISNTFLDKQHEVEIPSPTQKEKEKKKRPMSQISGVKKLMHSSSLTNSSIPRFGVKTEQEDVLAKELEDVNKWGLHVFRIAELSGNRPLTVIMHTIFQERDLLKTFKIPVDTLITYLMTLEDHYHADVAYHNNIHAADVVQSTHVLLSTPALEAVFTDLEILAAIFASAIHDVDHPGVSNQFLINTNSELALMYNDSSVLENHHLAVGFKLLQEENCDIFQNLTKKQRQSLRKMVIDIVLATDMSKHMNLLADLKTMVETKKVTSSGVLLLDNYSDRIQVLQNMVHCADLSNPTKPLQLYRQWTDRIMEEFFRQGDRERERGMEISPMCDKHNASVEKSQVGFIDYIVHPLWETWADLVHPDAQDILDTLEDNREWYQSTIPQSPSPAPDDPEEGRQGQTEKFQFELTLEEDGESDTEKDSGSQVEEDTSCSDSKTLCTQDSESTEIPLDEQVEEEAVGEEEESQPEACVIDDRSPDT
Method: as §1, §2, §3, §4

[1] = cited from earlier work

T1 sequence (P31645 whole entry, species assumed): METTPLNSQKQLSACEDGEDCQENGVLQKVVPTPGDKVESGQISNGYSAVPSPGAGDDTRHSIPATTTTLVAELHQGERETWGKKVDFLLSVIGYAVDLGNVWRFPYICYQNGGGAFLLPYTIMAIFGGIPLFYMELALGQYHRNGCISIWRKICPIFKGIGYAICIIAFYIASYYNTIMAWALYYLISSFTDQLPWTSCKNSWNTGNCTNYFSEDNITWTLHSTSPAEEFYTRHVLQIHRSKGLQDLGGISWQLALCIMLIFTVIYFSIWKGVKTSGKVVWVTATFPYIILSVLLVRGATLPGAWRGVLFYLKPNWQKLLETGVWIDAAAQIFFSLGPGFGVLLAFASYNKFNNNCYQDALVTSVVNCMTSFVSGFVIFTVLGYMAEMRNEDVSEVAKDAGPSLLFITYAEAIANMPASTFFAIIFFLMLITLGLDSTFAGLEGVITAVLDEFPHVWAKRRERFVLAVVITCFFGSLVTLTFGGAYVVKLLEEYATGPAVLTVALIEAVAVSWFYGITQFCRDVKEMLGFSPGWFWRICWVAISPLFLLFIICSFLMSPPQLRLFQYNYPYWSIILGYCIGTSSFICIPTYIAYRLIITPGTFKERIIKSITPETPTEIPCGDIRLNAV

Q: Which IC50 (SERT) does the source give for `COc1ccc([C@]23CCN(C)[C@H]2CC(=O)C[C@H]3C)cc1OC` (single isomer, unassigned) [Compound 102] here?
A: < 0.25 µM

Q: What about the inhibition at 10 µM (PDE4A1A) of the same compound?
A: < 20%

Q: What about the inhibition at 10 µM (PDE4B2) of the same compound?
A: < 20%

Q: And the inhibition at 10 µM (PDE4C1)?
A: < 20%

Q: What about the inhibition at 10 µM (PDE4D2) of the same compound?
A: < 20%

Q: What does the source list for `COc1ccc([C@@]23CCN(C)[C@@H]2CC(=O)C[C@@H]3C)cc1OC` (single isomer, unassigned) [Compound 103]?
A: IC50 (SERT): < 0.25 µM; inhibition at 10 µM (PDE4A1A): < 20%; inhibition at 10 µM (PDE4B2): < 20%; inhibition at 10 µM (PDE4C1): < 20%; inhibition at 10 µM (PDE4D2): < 20%

Q: With `COc1ccc([C@@]23CCC(=O)C[C@@H]2N(C)CC3)cc1OC` [(−) mesembrine] as the compound, how does the half-life in plasma [1] read?
A: less than 2 hours
